IC50 data for 20 compounds are collected here from patent publication US12528786B2, “Plasma kallikrein inhibitors” (Merck Sharp & Dohme LLC, priority 2020, dated 2026).

The IC50 is the midpoint of a concentration-inhibition curve. Low values mean inhibition by little substance, high ones a need for much substance.

For the assay, the target named is T1, Human plasma kallikrein (Homo sapiens, UniProt P03952).
T1 construct: yields a heavy chain (371 amino acids) and a light chain (248 amino acids); purchased Enzyme Research Laboratories
The experiment in a line: Kallikrein Assay (fluorogenic substrate hydrolysis, AFC release). The assay is classed as biochemical. Particulars: purified Human plasma kallikrein 0.5 nM; substrate Acetyl-K—P—R-AFC 100 mM; 50 mM HEPES pH 7.4. The method, boiled down:
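Purified human plasma kallikrein (0.5 nM final) with Acetyl-K-P-R-AFC substrate (final ≤0.2 Km) in 50 mM HEPES pH 7.4, 150 mM NaCl, 5 mM CaCl2, 0.1% PEG 8000, after enzyme–inhibitor equilibration; room temperature or 37° C. AFC fluorescence (405 Ex/510 Em nm) under linear conditions; IC50 by four-parameter fit, Ki via Cheng-Prusoff.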

T1 sequence (P03952 391-638 limits assumed): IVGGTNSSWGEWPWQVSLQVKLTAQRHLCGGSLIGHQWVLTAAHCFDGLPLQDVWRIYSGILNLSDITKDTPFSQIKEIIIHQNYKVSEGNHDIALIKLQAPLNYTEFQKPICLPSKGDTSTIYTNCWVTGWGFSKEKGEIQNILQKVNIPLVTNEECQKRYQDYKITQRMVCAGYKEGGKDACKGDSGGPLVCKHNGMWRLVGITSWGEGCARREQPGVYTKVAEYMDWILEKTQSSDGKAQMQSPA
T1 sequence (P03952 20-390 partner limits assumed): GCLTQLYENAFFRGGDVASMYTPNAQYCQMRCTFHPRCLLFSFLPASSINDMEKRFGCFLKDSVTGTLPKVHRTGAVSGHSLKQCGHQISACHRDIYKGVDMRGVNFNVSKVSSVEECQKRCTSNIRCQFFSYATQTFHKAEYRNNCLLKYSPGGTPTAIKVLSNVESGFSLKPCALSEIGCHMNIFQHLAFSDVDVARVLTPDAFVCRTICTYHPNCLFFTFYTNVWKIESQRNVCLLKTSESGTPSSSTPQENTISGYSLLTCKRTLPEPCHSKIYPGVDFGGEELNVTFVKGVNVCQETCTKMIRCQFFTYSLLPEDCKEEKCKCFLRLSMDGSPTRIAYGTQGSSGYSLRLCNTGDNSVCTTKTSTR

As for `Cc1c(C(C)n2cc(C(=O)NC3CC(c4cccc(Cl)c4)C3O)nn2)cnc(N2C[C@H]3C[C@H]3C2=O)c1F` (single isomer, unassigned) [Example 123, N-((1R,2R,3R or 1S,2S,3S)-3-(3-chlorophenyl)-2-hydroxycyclobutyl)-1-((R or S)-1-(5-fluoro-4-methyl-6-((1R,5S)-2-oxo-3-azabicyclo[3.1.0]hexan-3-yl)pyridin-3-yl)ethyl)-1H-1,2,3-triazole-4-carboxamide], inhibition was half-maximal at 0.0413 µM (IC50). With `Cc1c(C(C)n2cc(C(=O)NC3CC(c4cccc(Cl)c4)C3O)nn2)cnc(N2C[C@H]3C[C@H]3C2=O)c1F` (single isomer, unassigned) [Example 124, N-((1S,2S,3S or 1R,2R,3R)-3-(3-chlorophenyl)-2-hydroxycyclobutyl)-1-((R or S)-1-(5-fluoro-4-methyl-6-((1R,5S)-2-oxo-3-azabicyclo[3.1.0]hexan-3-yl)pyridin-3-yl)ethyl)-1H-1,2,3-triazole-4-carboxamide] the figure was 0.0045 µM; with `Cc1c(C(C)n2cc(C(=O)NC3CC(c4cccc(Cl)c4)C3O)nn2)cnc(N2C[C@H]3C[C@H]3C2=O)c1F` (single isomer, unassigned) [Example 125, N-((1R,2R,3R or 1S,2S,3S)-3-(3-chlorophenyl)-2-hydroxycyclobutyl)-1-((S or R)-1-(5-fluoro-4-methyl-6-((1R,5S)-2-oxo-3-azabicyclo[3.1.0]hexan-3-yl)pyridin-3-yl)ethyl)-1H-1,2,3-triazole-4-carboxamide], 0.13 µM; with `Cc1c(C(C)n2cc(C(=O)NC3CC(c4cccc(Cl)c4)C3O)nn2)cnc(N2C[C@H]3C[C@H]3C2=O)c1F` (single isomer, unassigned) [Example 126, N-((1S,2S,3S or 1R,2R,3R)-3-(3-chlorophenyl)-2-hydroxycyclobutyl)-1-((S or R)-1-(5-fluoro-4-methyl-6-((1R,5S)-2-oxo-3-azabicyclo[3.1.0]hexan-3-yl)pyridin-3-yl)ethyl)-1H-1,2,3-triazole-4-carboxamide], 0.414 µM. The same measure for `Cc1ccc(C#N)c([C@H]2C[C@@H](NC(=O)c3cn(C(C)c4nnc(N5C[C@H]6C[C@H]6C5=O)c(C)c4C)nn3)C2)n1` (single isomer, unassigned) [Example 127, N-((cis)-3-(3-cyano-6-methylpyridin-2-yl)cyclobutyl)-1-((R or S)-1-(4,5-dimethyl-6-((1R,5S)-2-oxo-3-azabicyclo[3.1.0]hexan-3-yl)pyridazin-3-yl)ethyl)-1H-1,2,3-triazole-4-carboxamide]: 0.702 µM; for `Cc1ccc(C#N)c([C@H]2C[C@@H](NC(=O)c3cn(C(C)c4nnc(N5C[C@H]6C[C@H]6C5=O)c(C)c4C)nn3)C2)n1` (single isomer, unassigned) [Example 128, N-((cis)-3-(3-cyano-6-methylpyridin-2-yl)cyclobutyl)-1-((S or R)-1-(4,5-dimethyl-6-((1R,5S)-2-oxo-3-azabicyclo[3.1.0]hexan-3-yl)pyridazin-3-yl)ethyl)-1H-1,2,3-triazole-4-carboxamide]: 0.0023 µM; for `Cc1c(C(C)n2cc(C(=O)NC3CC(c4cccc(Cl)c4)C3O)nn2)nnc(N2C[C@H]3C[C@H]3C2=O)c1C` (single isomer, unassigned) [Example 129, N-((1R,2R,3R or 1S,2S,3S))-3-(3-chlorophenyl)-2-hydroxycyclobutyl)-1-((R or S)-1-(4,5-dimethyl-6-((1R,5S)-2-oxo-3-azabicyclo[3.1.0]hexan-3-yl)pyridazin-3-yl)ethyl)-1H-1,2,3-triazole-4-carboxamide]: 0.839 µM. The same measure for `Cc1c(C(C)n2cc(C(=O)NC3CC(c4cccc(Cl)c4)C3O)nn2)nnc(N2C[C@H]3C[C@H]3C2=O)c1C` (single isomer, unassigned) [Example 130, N-((1S,2S,3S or 1R,2R,3R))-3-(3-chlorophenyl)-2-hydroxycyclobutyl)-1-((R or S)-1-(4,5-dimethyl-6-((1R,5S)-2-oxo-3-azabicyclo[3.1.0]hexan-3-yl)pyridazin-3-yl)ethyl)-1H-1,2,3-triazole-4-carboxamide]: 0.0085 µM; for `Cc1c(C(C)n2cc(C(=O)NC3CC(c4cccc(Cl)c4)C3O)nn2)nnc(N2C[C@H]3C[C@H]3C2=O)c1C` (single isomer, unassigned) [Example 131, N-((1R,2R,3R or 1S,2S,3S))-3-(3-chlorophenyl)-2-hydroxycyclobutyl)-1-((S or R)-1-(4,5-dimethyl-6-((1R,5S)-2-oxo-3-azabicyclo[3.1.0]hexan-3-yl)pyridazin-3-yl)ethyl)-1H-1,2,3-triazole-4-carboxamide]: 0.281 µM. `Cc1c(C(C)n2cc(C(=O)NC3CC(c4cccc(Cl)c4)C3O)nn2)nnc(N2C[C@H]3C[C@H]3C2=O)c1C` (single isomer, unassigned) [Example 132, N-((1S,2S,3S or 1R,2R,3R))-3-(3-chlorophenyl)-2-hydroxycyclobutyl)-1-((S or R)-1-(4,5-dimethyl-6-((1R,5S)-2-oxo-3-azabicyclo[3.1.0]hexan-3-yl)pyridazin-3-yl)ethyl)-1H-1,2,3-triazole-4-carboxamide] came in with a 50% inhibitory concentration (IC50) of 0.279 µM. `Cc1ccc(C#N)c([C@H]2C[C@@H](NC(=O)c3cn(C(C)c4cnc(N5C[C@H]6C[C@H]6C5=O)c(C)c4)nn3)C2)c1` (single isomer, unassigned) [Example 133, N-((cis)-3-(2-cyano-5-methylphenyl)cyclobutyl)-1-((R or S)-1-(5-methyl-6-((1R,5S)-2-oxo-3-azabicyclo[3.1.0]hexan-3-yl)pyridin-3-yl)ethyl)-1H-1,2,3-triazole-4-carboxamide] came in with a half-maximal inhibitory concentration (IC50) of 0.0025 µM. The same measure for `Cc1ccc(C#N)c([C@H]2C[C@@H](NC(=O)c3cn(C(C)c4cnc(N5C[C@H]6C[C@H]6C5=O)c(C)c4)nn3)C2)c1` (single isomer, unassigned) [Example 134, N-((cis)-3-(2-cyano-5-methylphenyl)cyclobutyl)-1-((S or R)-1-(5-methyl-6-((1R,5S)-2-oxo-3-azabicyclo[3.1.0]hexan-3-yl)pyridin-3-yl)ethyl)-1H-1,2,3-triazole-4-carboxamide]: 0.0054 µM; for `Cc1ccc(C#N)c([C@H]2C[C@@H](NC(=O)c3cn(C(C)c4cnc(N5C[C@H]6C[C@H]6C5=O)c(F)c4C)nn3)C2)n1` (single isomer, unassigned) [Example 135, N-((cis)-3-(3-cyano-6-methylpyridin-2-yl)cyclobutyl)-1-((R or S)-1-(5-fluoro-4-methyl-6-((1R,5S)-2-oxo-3-azabicyclo[3.1.0]hexan-3-yl)pyridin-3-yl)ethyl)-1H-1,2,3-triazole-4-carboxamide]: 0.08 µM. The same measure for `Cc1ccc(C#N)c([C@H]2C[C@@H](NC(=O)c3cn(C(C)c4cnc(N5C[C@H]6C[C@H]6C5=O)c(F)c4C)nn3)C2)n1` (single isomer, unassigned) [Example 136, N-((cis)-3-(3-cyano-6-methylpyridin-2-yl)cyclobutyl)-1-((S or R)-1-(5-fluoro-4-methyl-6-((1R,5S)-2-oxo-3-azabicyclo[3.1.0]hexan-3-yl)pyridin-3-yl)ethyl)-1H-1,2,3-triazole-4-carboxamide]: 0.0014 µM; for `C[C@H](c1cncc(N2C[C@H]3C[C@H]3C2=O)c1)n1cc(C(=O)N[C@H]2C[C@@H](c3cc(Cl)ccc3C#N)C2)nn1` (single isomer, unassigned) [Example 137]: 0.0016 µM. With `C[C@@H](c1cncc(N2C[C@H]3C[C@H]3C2=O)c1)n1cc(C(=O)N[C@H]2C[C@@H](c3cc(Cl)ccc3C#N)C2)nn1` (single isomer, unassigned) [Example 138] the figure was 0.0111 µM; with `Cc1ncc(C(C)n2cc(C(=O)N[C@H]3C[C@@H](c4cc(Cl)ccc4C#N)C3)nn2)cc1N1C[C@H]2C[C@H]2C1=O` (single isomer, unassigned) [Example 139, N-((cis)-3-(5-chloro-2-cyanophenyl)cyclobutyl)-1-((R or S)-1-(6-methyl-5-((1R,5S)-2-oxo-3-azabicyclo[3.1.0]hexan-3-yl)pyridin-3-yl)ethyl)-1H-1,2,3-triazole-4-carboxamide], 0.0014 µM. On to `Cc1ncc(C(C)n2cc(C(=O)N[C@H]3C[C@@H](c4cc(Cl)ccc4C#N)C3)nn2)cc1N1C[C@H]2C[C@H]2C1=O` (single isomer, unassigned) [Example 140, N-((cis)-3-(5-chloro-2-cyanophenyl)cyclobutyl)-1-((S or R)-1-(6-methyl-5-((1R,5S)-2-oxo-3-azabicyclo[3.1.0]hexan-3-yl)pyridin-3-yl)ethyl)-1H-1,2,3-triazole-4-carboxamide], for which half-maximal inhibition (IC50) was put at 0.0113 µM. With `[2H]C1(NC(=O)c2cn([C@@H](C)c3cnc(N4C[C@H]5C[C@H]5C4=O)cc3C)nn2)CC(C)(c2cc(Cl)ccc2C#N)C1` (single isomer, unassigned) [Example 145, N-((cis or trans)-3-(5-chloro-2-cyanophenyl)-3-methylcyclobutyl-1-d)-1-((S)-1-(4-methyl-6-((1R,5S)-2-oxo-3-azabicyclo[3.1.0]hexan-3-yl)pyridin-3-yl)ethyl)-1H-1,2,3-triazole-4-carboxamide] the figure was 0.126 µM; with `[2H]C1(NC(=O)c2cn([C@@H](C)c3cnc(N4C[C@H]5C[C@H]5C4=O)cc3C)nn2)CC(C)(c2cc(Cl)ccc2C#N)C1` (single isomer, unassigned) [Example 146, N-((trans or cis)-3-(5-chloro-2-cyanophenyl)-3-methylcyclobutyl-1-d)-1-((S)-1-(4-methyl-6-((1R,5S)-2-oxo-3-azabicyclo[3.1.0]hexan-3-yl)pyridin-3-yl)ethyl)-1H-1,2,3-triazole-4-carboxamide], 0.0007 µM.
